# Test results published in patent US20250120425A1, “Combinations of Ketogenic Supplements for Rapid and Sustained Blood Ketone Levels in Dieters and Patients” (priority 2021, published 2025).
# What was measured:
# [1] = Blood βHB levels after single oral administration of ketogenic compounds in human subjects
# Protocol: Table 1 is data depicting blood BHB levels of 4 male subjects with an average weight of 76 kg in a fasted state that received 5.5 grams of buffered (D) βHB together with 4.5 grams of (D)-1,3BD, 328 mg of Na+ in the form of NaHCO3 and 500 mg of K+ in the form of KHCO3, at 15, 30, 45 and 60 minutes after oral administration. […] That compound is an ester formed by reacting (D)-3-hydroxybutyrate and (D)-1,3-butanediol.
# Table 2 is data depicting blood βHB levels after a single administration of 5.5 grams of buffered (D) βHB together with 4.5 grams of (D)-1,3BD, 328 mg of Na+ in the form of NaHCO3 and 500 mg of K+ in the form of KHCO3 in a fasted 70 kg subject who was following a strict ketogenic diet and keto adapted due at 15, 30, 45 and 60 minutes after oral administration.
# Table 3 is data depicting blood BHB after a single administration of 10 grams of buffered (D) βHB acid with 328 mg of Na+ in the form of NaHCO3 and 500 mg of K+ in the form of KHCO3 in a fasted 75 kg subject and two fasted 65 kg female subjects at 15, 30, 45, 60 and 90 minutes after administration.
# FIG. […] The total dose of 60 grams was administered 3 hours after a meal. […] Those esters are typically administered after an overnight fast on an empty stomach. […] FIG. 5 also includes blood samples for 2 esters of (D)-BHB. The first was from HVMN and consisted of […] of ester (2 commercially available 30 gram bottles). The second was the ester KE4 from KetoneAid and contained 60 net grams (2 commercially available 30 gram bottles). The choice of 60 grams of active ester was based on dosing protocols for elite athletes in the paper “Nutritional Ketosis Alters Fuel Preference and Thereby Endurance in Elite Athletes” Cell Metabolism Cox et al. 2016.
# [2] = human, in vivo; cited from earlier work
smiles,measurement,setting,value
"C[C@@H](O)CC(=O)O [10 g HB, (D)-beta-hydroxybutyrate]","effectiveness at raising blood levels of (D)-βHB, pure (D) form versus racemic","[1]; human, in vivo",more than twice as effective
"CC(O)CCO (stereo not shown) [(D)-1,3BD, (D)-1,3-butanediol]",serum level of (D)-beta-hydroxybutyrate reached,"[1]; 10 grams, 75 kg person",0.9 mmol
same,effectiveness at raising serum levels of (D)-beta-hydroxybutyrate,[1]; (D) enantiomer compared with the racemic form,~3 times
same,mean blood BHB level,"[1]; Table 4: 10 grams single administration, 72 kg fasted subject, T + 0",0.0
same,mean blood BHB level,"[1]; Table 4: 10 grams, 72 kg fasted male, +15 Min",0.6
same,mean blood BHB level,"[1]; Table 4: 10 grams, 72 kg fasted male, +30 Min",0.9
same,mean blood BHB level,"[1]; Table 4: 10 grams, 72 kg fasted male, +45 Min",0.9
same,mean blood BHB level,"[1]; Table 4: 10 grams, 72 kg fasted male, +60 Min",0.5
same,mean blood BHB level,"[1]; Table 4: 10 grams, 72 kg fasted male, +90 Min",0.3
same,"effectiveness at raising blood levels of (D)-βHB, pure (D) form versus racemic",[1]; for any given weight,more than twice as effective
same,ketogenic power compared with the free acid (D)-βHB,[1]; gram to gram basis,"the liver. On a gram to gram basis, it is a more powerful"
same,ketogenic power relative to the ketone ester,[1]; gram to gram basis,~90% as powerful as the previously mentioned ketone ester
C[C@@H](O)CCOC(=O)C[C@@H](C)O [(D)-3-hydroxybutyl-(D)-3-hydroxybutyrate],average serum increase for βHB,[2],1.0 mmol/10 grams
